Reference: ChEMBL document CHEMBL1201862, “PubChem BioAssay data set” (2004)
Where “and” joins values, the source holds several entries; their conditions need not be identical. Equal values may be shown once. Calls of active or inactive are those of the source.

How the values were obtained:
[1] = biological target: T1, Tyrosine-protein phosphatase non-receptor type 7 (Homo sapiens, UniProt P35236); format: functional
T1 sequence (P35236 whole entry): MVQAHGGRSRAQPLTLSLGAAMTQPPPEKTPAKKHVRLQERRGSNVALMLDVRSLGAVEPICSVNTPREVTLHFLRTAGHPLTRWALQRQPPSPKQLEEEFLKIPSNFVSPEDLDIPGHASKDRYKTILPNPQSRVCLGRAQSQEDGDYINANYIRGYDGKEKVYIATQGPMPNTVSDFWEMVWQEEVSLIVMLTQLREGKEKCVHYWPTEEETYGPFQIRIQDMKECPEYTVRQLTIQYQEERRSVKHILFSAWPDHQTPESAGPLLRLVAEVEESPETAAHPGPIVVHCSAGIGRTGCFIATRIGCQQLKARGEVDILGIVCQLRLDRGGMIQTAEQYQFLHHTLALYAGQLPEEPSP

[2] = biological target: T2, Dual specificity protein phosphatase 6 (Rattus norvegicus, UniProt Q64346); format: functional
T2 sequence (Q64346 whole entry): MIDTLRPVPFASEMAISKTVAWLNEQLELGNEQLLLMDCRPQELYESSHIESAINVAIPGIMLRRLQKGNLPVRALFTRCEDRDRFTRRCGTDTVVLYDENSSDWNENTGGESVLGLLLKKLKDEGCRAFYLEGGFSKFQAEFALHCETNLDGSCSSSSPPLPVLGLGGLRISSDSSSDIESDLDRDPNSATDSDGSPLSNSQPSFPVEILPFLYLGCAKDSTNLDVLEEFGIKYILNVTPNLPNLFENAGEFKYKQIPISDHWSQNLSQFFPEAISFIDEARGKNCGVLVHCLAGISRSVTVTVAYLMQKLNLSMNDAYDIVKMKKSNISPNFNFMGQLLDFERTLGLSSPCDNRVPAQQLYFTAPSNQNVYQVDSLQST

[3] = biological target: T2, Dual specificity protein phosphatase 6
[4] = biological target: Glyceraldehyde-3-phosphate dehydrogenase (Homo sapiens, UniProt P04406)
Sequence of Glyceraldehyde-3-phosphate dehydrogenase (P04406 whole entry): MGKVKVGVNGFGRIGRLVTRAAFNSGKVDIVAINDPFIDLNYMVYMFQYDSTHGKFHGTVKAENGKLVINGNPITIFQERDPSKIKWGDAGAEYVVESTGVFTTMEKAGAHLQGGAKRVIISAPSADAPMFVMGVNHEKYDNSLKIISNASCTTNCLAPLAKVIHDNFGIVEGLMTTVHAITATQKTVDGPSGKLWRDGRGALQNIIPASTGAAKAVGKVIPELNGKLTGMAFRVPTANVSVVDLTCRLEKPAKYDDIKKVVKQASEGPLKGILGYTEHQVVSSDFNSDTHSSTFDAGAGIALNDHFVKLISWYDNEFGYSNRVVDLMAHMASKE

MDCK [5] = assay: MDCK cell cytotoxicity, dose response, cytotoxicity control (AID 540296); format: functional; settings: Canis lupus familiaris
MDCK [6] = assay: antiviral activity against H1N1 influenza, dose response, cell-based, strain KY136 (AID 540257); format: functional; settings: Canis lupus familiaris
Vero = assay: Vero E6 cell cytotoxicity, dose response, cytotoxicity control (AID 540298); format: functional; settings: Chlorocebus sabaeus
Nonstructural protein 1 = Nonstructural protein 1 (Influenza A virus, UniProt Q194T2); format: functional, Influenza A virus (A/California/07/2009(H1N1))
Sequence of Nonstructural protein 1 (Q194T2 whole entry): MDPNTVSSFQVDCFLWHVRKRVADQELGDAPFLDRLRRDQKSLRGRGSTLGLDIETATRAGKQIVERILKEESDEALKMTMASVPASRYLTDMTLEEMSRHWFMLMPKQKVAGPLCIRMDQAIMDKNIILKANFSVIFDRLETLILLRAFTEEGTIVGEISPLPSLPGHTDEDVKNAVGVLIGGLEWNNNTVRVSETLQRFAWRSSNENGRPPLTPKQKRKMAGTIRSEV

[7] = biological target: Voltage-gated inwardly rectifying potassium channel KCNH2 (Homo sapiens, UniProt Q12809); settings: Potency;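 note: confirmatory quantitative high-throughput screen measuring inhibition of hERG channel activity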
Sequence of Voltage-gated inwardly rectifying potassium channel KCNH2 (Q12809 whole entry): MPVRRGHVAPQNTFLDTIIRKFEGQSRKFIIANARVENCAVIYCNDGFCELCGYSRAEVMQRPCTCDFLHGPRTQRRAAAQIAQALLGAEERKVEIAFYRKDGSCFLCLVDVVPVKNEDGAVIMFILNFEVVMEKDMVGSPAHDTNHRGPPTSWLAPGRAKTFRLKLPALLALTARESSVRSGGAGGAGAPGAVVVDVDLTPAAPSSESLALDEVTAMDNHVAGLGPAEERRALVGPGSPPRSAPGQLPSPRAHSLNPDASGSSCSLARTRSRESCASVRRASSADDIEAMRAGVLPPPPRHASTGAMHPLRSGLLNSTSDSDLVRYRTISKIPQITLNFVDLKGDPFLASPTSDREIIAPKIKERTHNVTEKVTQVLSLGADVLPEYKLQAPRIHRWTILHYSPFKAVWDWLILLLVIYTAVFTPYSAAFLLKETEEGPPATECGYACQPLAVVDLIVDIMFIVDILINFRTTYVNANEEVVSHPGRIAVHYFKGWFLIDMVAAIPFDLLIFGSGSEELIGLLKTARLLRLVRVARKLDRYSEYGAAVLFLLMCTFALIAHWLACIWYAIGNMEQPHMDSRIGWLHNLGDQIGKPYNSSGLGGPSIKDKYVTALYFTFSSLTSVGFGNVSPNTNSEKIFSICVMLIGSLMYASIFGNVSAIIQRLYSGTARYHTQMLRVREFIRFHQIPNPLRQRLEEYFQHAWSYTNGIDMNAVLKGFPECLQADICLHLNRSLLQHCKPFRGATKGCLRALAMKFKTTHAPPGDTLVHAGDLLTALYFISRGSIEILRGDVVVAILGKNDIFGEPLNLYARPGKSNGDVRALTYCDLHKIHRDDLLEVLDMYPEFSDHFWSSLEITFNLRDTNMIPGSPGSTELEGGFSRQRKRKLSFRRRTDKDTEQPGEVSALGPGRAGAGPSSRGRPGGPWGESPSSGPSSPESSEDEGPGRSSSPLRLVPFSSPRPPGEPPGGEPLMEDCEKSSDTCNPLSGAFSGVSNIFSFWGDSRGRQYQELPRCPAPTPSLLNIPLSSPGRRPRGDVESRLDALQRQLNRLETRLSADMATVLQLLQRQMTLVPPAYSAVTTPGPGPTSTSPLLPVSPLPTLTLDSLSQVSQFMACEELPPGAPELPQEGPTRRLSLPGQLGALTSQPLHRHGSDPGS

[8] = biological target: T3, Endoribonuclease toxin MazF (Escherichia coli K-12, UniProt P0AE70); assay: MazEF toxin-antitoxin RNase activation – biochemical, fluorescence, single-stranded RNA substrate, SAR follow-up (AID 588603); format: functional
T3 sequence (P0AE70 whole entry): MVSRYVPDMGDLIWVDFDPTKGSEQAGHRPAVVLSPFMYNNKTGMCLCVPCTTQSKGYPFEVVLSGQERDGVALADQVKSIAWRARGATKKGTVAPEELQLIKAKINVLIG

[9] = biological target: T3, Endoribonuclease toxin MazF; assay: activation of MazEF endoribonuclease cleavage – biochemical, fluorescence, single-stranded RNA substrate, uHTS hits, dose response (AID 588481); format: functional
[10] = biological target: T3, Endoribonuclease toxin MazF; assay: SAR analysis of small molecule activators of the MazEF TA System via a fluorescence-based single-stranded RNase assay counterscreen. [Related pubchem assays (depositor defined):AID504720, AID504743]; format: functional
MEF = assay: SAR analysis of small molecule cytotoxicity of MazEF TA System activators in embryonic fibroblast (MEF) cells. [Related pubchem assays (depositor defined):AID504720, AID504743]; format: functional; settings: Mus musculus
[11] = biological target: T3, Endoribonuclease toxin MazF; assay: substrate-only fluorescence increase artefacts – biochemical, single-stranded RNase substrate, counter-screen for MazEF activator project, dose response (AID 588502); format: functional
HEK293 [12] = assay: cells; settings: Homo sapiens
[13] = biological target: T4, High affinity choline transporter 1 (Homo sapiens, UniProt Q9GZV3); assay: human choline transporter blockers, potency – cell-based, 5-point CRC, membrane potential dye, dose response (AID 504840); format: functional
T4 sequence (Q9GZV3 whole entry): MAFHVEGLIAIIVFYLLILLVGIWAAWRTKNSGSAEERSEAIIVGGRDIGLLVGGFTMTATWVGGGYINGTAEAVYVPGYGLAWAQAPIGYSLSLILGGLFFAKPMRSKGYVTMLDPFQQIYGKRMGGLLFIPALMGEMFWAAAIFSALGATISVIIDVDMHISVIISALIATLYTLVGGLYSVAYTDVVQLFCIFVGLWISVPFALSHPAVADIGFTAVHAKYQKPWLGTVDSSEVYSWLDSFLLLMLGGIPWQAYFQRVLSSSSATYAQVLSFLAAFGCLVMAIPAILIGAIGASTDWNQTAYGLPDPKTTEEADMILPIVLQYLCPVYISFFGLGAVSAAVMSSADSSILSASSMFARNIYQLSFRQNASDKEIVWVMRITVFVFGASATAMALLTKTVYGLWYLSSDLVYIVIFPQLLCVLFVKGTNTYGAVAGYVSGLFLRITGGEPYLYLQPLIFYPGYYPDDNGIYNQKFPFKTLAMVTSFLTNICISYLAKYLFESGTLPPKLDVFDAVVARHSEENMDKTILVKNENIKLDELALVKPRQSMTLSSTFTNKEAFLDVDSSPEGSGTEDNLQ

[14] = Luminescent dose response cell-based high throughput screening assay for inhibitors of the Janus kinase 2 mutant JAK2V617F. [Related pubchem assays: 1446 (Primary screen.), 1521 (Confirmation assay.), 1486 (Counter screen.)]; format: functional
HEK293 [15] = assay: cells; settings: Homo sapiens; remark: listed apart in the source
Mu-type opioid receptor = Mu-type opioid receptor (Homo sapiens, UniProt P35372); assay: (§1) Counterscreen for agonists of heterodimerization of the mu 1 (OPRM1) and delta 1 (OPRD1) opioid receptors: Luminescence-based cell-based high throughput dose response assay to identify agonists of OPRM1 homodimerization.; format: functional
Sequence of Mu-type opioid receptor (P35372 whole entry): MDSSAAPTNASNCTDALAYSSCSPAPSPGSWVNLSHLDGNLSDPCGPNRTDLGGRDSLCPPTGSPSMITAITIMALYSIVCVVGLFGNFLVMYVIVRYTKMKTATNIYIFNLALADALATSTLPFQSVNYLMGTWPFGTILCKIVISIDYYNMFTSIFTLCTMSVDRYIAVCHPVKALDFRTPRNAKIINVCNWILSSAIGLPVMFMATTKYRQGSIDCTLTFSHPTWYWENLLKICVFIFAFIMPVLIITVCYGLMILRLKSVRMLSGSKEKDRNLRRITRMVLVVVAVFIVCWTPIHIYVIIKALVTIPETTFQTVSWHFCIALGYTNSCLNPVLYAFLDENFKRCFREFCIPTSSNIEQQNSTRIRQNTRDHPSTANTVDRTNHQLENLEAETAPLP

[16] = biological target: Delta-type opioid receptor (Homo sapiens, UniProt P41143); assay: as §1, with “of OPRD1” for “of OPRM1”, “homodimerization. [Related pubchem assays (depositor defined):AID504326, AID504355, AID504692, AID504904, AID504905]” for “homodimerization.”; format: functional
Sequence of Delta-type opioid receptor (P41143 whole entry): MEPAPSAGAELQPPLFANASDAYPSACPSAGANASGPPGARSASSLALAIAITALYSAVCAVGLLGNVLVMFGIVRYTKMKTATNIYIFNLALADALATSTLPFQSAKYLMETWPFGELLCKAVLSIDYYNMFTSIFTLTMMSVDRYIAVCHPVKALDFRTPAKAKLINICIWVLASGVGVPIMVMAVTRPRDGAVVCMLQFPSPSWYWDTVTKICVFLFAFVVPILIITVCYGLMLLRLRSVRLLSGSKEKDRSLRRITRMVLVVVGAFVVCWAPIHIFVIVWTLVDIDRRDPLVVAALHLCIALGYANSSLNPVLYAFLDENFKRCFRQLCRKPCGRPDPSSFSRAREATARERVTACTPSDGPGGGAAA

[17] = biological target: 5-hydroxytryptamine receptor 5A (Homo sapiens, UniProt P47898); assay: Counterscreen for agonists of OPRM1-OPRD1 heterodimerization: luminescence-based cell-based high throughput dose response assay to identify agonists of 5-hydroxytryptamine (serotonin) 5A receptor (HTR5A). [Related pubchem assays (depositor defined):AID504326, AID504355, AID504692, AID504904, AID504905]; format: functional
Sequence of 5-hydroxytryptamine receptor 5A (P47898 whole entry): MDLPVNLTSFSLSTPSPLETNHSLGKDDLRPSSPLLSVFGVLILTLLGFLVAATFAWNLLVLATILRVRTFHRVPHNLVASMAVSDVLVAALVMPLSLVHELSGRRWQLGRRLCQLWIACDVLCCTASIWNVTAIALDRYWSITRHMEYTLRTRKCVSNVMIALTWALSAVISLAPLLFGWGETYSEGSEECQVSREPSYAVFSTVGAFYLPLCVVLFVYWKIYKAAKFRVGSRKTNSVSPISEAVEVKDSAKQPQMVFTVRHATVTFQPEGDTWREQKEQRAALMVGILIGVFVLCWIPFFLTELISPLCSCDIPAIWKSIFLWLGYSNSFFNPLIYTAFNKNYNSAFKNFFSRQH

NIH3T3 = assay: mammalian cell viability counter-check – Alamar Blue, fluconazole, dry powder, cytotoxicity control for antifungal drug resistance project, dose response (AID 488809); format: functional, cell-based; settings: Mus musculus
[18] = biological target: T5, Carboxy-terminal domain RNA polymerase II polypeptide A small phosphatase 1 (Homo sapiens, UniProt Q9GZU7); assay: CTDSP1 inhibitors, concentration-response, biochemical, absorbance readout, ultra-high-throughput screen actives (AID 540297); format: functional
T5 sequence (Q9GZU7 whole entry): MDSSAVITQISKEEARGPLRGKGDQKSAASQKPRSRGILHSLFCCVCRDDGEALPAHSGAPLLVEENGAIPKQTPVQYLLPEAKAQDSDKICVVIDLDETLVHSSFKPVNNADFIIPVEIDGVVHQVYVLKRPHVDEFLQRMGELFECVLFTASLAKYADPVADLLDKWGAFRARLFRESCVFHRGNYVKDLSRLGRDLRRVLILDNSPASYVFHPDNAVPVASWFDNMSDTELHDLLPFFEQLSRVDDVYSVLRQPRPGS

Hexokinase HKDC1 = Hexokinase HKDC1 (Homo sapiens, UniProt Q2TB90); assay: inhibition of HKDC1 glucose phosphorylation – biochemical, W721R variant, dose response (AID 504729); format: functional
Sequence of Hexokinase HKDC1 (Q2TB90 whole entry): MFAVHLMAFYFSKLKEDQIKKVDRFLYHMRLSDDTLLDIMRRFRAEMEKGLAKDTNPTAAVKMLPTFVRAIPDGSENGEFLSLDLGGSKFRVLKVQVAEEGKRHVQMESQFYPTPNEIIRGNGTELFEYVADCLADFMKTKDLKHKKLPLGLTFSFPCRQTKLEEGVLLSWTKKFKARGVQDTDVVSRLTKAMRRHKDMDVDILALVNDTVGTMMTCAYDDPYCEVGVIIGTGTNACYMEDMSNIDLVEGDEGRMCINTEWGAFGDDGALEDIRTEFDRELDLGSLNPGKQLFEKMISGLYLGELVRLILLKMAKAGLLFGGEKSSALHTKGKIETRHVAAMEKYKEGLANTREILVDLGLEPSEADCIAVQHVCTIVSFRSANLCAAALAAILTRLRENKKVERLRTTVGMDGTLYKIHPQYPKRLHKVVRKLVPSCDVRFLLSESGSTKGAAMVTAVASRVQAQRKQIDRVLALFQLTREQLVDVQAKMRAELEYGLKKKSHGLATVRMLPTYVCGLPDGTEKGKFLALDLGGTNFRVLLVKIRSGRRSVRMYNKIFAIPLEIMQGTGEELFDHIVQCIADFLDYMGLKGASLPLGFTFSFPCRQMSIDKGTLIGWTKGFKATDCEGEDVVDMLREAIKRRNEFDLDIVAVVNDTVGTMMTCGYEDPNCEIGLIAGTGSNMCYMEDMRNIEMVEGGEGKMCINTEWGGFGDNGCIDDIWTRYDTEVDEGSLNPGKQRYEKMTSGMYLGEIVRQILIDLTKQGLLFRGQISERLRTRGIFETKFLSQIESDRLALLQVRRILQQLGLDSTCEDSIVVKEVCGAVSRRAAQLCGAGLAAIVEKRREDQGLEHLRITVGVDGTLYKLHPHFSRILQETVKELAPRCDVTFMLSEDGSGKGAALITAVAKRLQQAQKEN

[19] = biological target: T6, Tyrosyl-DNA phosphodiesterase 2 (Homo sapiens, UniProt O95551); assay: potency against TDP2 phosphodiesterase activity – biochemical, epi absorbance, IC50, dose response (AID 743297)
T6 sequence (O95551 whole entry): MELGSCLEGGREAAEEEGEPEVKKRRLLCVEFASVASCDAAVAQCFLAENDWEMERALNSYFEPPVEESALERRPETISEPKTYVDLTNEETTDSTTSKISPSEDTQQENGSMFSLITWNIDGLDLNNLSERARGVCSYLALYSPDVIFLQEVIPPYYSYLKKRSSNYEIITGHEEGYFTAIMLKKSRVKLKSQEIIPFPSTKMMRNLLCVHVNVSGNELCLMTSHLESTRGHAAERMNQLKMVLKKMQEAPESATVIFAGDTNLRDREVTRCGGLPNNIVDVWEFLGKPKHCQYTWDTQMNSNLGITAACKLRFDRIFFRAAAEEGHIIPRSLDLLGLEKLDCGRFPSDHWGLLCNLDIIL

[20] = biological target: Beta-adrenergic receptor kinase 1 (Homo sapiens, UniProt P25098); assay: aptamer displacement from bead-bound GRK2 – biochemical, cherry pick 1, bead flow cytometry, dose response (AID 504500)
Sequence of Beta-adrenergic receptor kinase 1 (P25098 whole entry): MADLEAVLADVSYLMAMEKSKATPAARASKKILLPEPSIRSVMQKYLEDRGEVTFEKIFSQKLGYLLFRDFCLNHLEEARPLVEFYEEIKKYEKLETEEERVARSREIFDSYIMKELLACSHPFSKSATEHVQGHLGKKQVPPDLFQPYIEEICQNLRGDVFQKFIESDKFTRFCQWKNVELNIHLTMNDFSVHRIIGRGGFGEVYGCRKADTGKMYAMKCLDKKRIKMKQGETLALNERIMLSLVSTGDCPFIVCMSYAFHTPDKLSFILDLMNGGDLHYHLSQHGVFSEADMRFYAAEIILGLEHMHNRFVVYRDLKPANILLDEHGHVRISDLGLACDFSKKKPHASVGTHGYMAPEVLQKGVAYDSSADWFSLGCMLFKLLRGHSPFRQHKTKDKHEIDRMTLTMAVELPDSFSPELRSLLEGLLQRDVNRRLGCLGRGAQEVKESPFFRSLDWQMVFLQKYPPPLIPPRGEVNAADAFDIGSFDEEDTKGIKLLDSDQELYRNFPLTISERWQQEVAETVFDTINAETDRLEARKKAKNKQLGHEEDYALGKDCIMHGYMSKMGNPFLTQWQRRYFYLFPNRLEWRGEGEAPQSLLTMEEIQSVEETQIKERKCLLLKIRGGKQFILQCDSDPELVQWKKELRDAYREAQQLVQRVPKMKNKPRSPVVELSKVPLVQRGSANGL

Cytochrome P450 2D6 = Cytochrome P450 2D6 (Homo sapiens, UniProt P10635);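 note: CYP2D6 member of a cytochrome P450 panel assay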
Sequence of Cytochrome P450 2D6 (P10635 whole entry): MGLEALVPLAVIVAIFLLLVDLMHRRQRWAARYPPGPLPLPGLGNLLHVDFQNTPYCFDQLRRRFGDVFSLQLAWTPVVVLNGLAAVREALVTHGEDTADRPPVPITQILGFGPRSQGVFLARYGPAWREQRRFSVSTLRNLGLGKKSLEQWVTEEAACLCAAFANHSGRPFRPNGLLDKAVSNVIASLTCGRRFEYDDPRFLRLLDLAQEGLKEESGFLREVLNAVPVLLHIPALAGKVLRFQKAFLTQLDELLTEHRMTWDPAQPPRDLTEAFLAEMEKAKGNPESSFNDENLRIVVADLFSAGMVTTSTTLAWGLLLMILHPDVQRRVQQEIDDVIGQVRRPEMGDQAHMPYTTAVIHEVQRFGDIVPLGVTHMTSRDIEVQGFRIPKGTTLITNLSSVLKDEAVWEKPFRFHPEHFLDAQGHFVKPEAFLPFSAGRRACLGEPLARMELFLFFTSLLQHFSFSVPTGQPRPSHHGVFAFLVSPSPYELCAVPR

Cytochrome P450 1A2 = biological target: T7, Cytochrome P450 1A2 (Homo sapiens, UniProt P05177);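 note: PubChem cytochrome P450 panel assay, CYP1A2 panel member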
T7 sequence (P05177 whole entry): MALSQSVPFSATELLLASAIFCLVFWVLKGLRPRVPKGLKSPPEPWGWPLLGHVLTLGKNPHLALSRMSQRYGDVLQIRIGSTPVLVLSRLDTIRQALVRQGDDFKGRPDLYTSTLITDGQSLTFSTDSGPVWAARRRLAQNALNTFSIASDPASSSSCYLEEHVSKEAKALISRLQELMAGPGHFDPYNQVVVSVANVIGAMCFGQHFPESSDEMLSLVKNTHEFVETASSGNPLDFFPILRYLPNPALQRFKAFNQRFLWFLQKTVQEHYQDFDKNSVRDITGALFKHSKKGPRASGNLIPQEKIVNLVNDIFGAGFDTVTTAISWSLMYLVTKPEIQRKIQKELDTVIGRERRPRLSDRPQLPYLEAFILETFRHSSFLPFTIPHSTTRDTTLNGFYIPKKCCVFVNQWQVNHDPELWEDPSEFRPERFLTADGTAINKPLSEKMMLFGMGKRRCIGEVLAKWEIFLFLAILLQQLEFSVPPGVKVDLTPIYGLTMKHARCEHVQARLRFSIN

For `C#CCCCCCCCCCCCCCCCCCC`, the IC50 [1] was > 100 µM (not active), the IC50 [2] was > 100 µM (inactive) and the IC50 [3] was > 100 µM (inactive). For the same compound, the IC50 [4] was > 100 µM (not active).

In the case of `Fc1ccc(-[n+]2nc(Nc3ccccc3)sc2-c2c(Cl)cccc2Cl)cc1`, the CC50 (MDCK [5]) is reported as 11.6 µM (active), the IC50 (MDCK [6]) is reported as > 100 µM (active) and the CC50 (Vero) is reported as 23.2 µM (active). The IC50 (Nonstructural protein 1) was 51.2 µM (active).

With `Brc1ccc(-c2ccccc2)cc1` the AC50 [7] was 39.8 µM (inconclusive).

For `O=C(C1=NN[C@@H]2C(=O)N(c3cccc(F)c3)C(=O)[C@H]12)c1ccc2ccccc2n1`, the EC50 [8] was 24.4 µM (inactive), the EC50 [9] was 20.5 µM (inactive) and the EC50 [10] was > 99 µM (inactive). The CC50 (MEF) was > 99 µM (inactive) and the EC50 [11] was > 99 µM (inactive).

For `COc1ccc(C2=Nn3c(nnc3C3CCCCC3)SC2)cc1OC`, the EC50 (HEK293 [12]) was > 59.6 µM (inactive), the IC50 [13] was 1.74 µM (active) and the IC50 [14] was 3.41 µM (active). For the same compound, the EC50 (HEK293 [15]) was > 59.6 µM (inactive).

For `Cc1ccc(C)c(-n2cc(CNC(C)Cn3cncn3)c(-c3ccccc3)n2)c1` (centres undefined), the EC50 (Mu-type opioid receptor) was > 92.5 µM (inactive), the EC50 [16] was > 92.5 µM (inactive) and the EC50 [17] was > 92.5 µM (inactive).

For `CCOC(=O)c1nn(Cc2ccc(Cl)cc2)c2ccccc12`, the AC50 (NIH3T3) was 39 µM (active).

For `O=C(O)c1ccccc1-c1c2cc(I)c(=O)c(I)c-2oc2c(I)c(O)c(I)cc12`, the IC50 [18] was 1.89 µM (active), the IC50 (Hexokinase HKDC1) was 14.4 µM (active) and the IC50 [19] was > 14.3 µM (inactive) and 35.7 µM (inactive). The IC50 (Nonstructural protein 1) was 19.4 µM (active) and the EC50 [20] was 14.7 µM (inactive).

For `CS(=O)(=O)O.Cc1ccc(N(CC2=NCCN2)c2cccc(O)c2)cc1` [PHENTOLAMINE MESYLATE], the AC50 (Cytochrome P450 2D6) was 3.16 µM (active) and the AC50 (Cytochrome P450 1A2) was “inactive”.
